Values of other authors, collected in patent US11499155B2, “Dynamin 2 inhibitor for the treatment of centronuclear myopathies” (UNIVERSITE DE STRASBOURG, priority 2013, dated 2022).

Assays:
[1] = system: Dynamin
[2] = system: mitochondrial division; settings: read-out: IC50 (mitochondrial division inhibitor)
[3] = target: receptor-mediated and synaptic vesicle endocytosis; settings: read-out: IC50 for inhibition of receptor-mediated and synaptic vesicle endocytosis

Row | SMILES | IC50 [1] | also measured
1 | O=C(NN=Cc1cc(O)c(O)cc1O)c1cc2ccccc2cc1O [Hydroxy-Dynasore, 3-Hydroxy-N′-[(2,4,5-trihydroxyphenyl)methylidene]naphthalene-2-carbohydrazide] | 2500 nM | 
2 | COc1cc(-n2c(S)nc3ccccc3c2=O)c(Cl)cc1Cl [M-divi 1, 3-(2,4-Dichloro-5-methoxyphenyl)-2-sulfanylquinazolin-4(3H)-one] |  | IC50 [2]: 10 µM
3 | CCCCCCCCCCCCCC[N+](C)(C)C [MiTMAB, Tetradecyltrimethylammonium bromide] |  | IC50 [3]: 2200 nM
4 | CCCCCCCCCCCCCCCCCC[N+](C)(C)CCN1C(=O)C2C3CCC(O3)C2C1=O (stereo not shown) [RTIL-13, 4-(N,N-Dimethyl-N-octadecyl-N-ethyl)-4-aza-10-oxatricyclo-[5.2.1]decane-3,5-dione bromide] | 2300 nM | 
